The text below walks through data of patent US20250230193A1, “CYCLIC COMPOUND HAVING SELECTIVE KRAS INHIBITORY EFFECT ON HRAS AND NRAS” (CHUGAI SEIYAKU KABUSHIKI KAISHA, priority 2022, published 2025).

Structures are written as SMILES. *1 amine or outer side, *2 acyl side, *3 side chain or, on linkers, in order; H or OH if unused. Where a SMILES comes first, the peptide text is derived from it. Bridges are numbered along the chain shown (N, C = ends). [ ]: non-standard residue; d: D form. The star is where a group is joined. hPhe(3,5-F2-4-CF3) = N[C@@H](CCc1cc(F)c(C(F)(F)F)c(F)c1)C(=O)O; hPhe(3-Cl-4-CF3) = N[C@@H](CCc1ccc(C(F)(F)F)c(Cl)c1)C(=O)O; X31 = O=C([C@H](Cc1ccc(C(F)(F)F)cc1)N(CC1CC1)[*:1])[*:2]; NPrPhe(4-CF3) = CCCN[C@@H](Cc1ccc(C(F)(F)F)cc1)C(=O)O; NMeGly(cPent) = CN[C@H](C(=O)O)C1CCCC1; NMeD = CN[C@@H](CC(=O)O)C(=O)O; Ac4c(3-oxa) = NC1(C(=O)O)COC1; NMeL = CN[C@@H](CC(C)C)C(=O)O; αMeV = CC(C)[C@](C)(N)C(=O)O; Morpholide = C1CN(*)CCO1; NMeA = CN[C@@H](C)C(=O)O; Ac5c = NC1(C(=O)O)CCCC1; Aze = O=C(O)[C@@H]1CCN1; Sar = CNCC(=O)O

Experiment [1] concerns the target GDP-bound HRAS wild-type protein (Homo sapiens, UniProt P01112). In words: Binding to HRAS by surface plasmon resonance (SPR), Single Cycle Kinetics. To be noted: SPR. (In general: Surface plasmon resonance follows binding to a sensor surface in real time, without labels.)
Experiment [2] has as its target GDP-bound NRAS wild-type protein (Homo sapiens, UniProt P01111). Briefly: Binding to NRAS by surface plasmon resonance (SPR), Single Cycle Kinetics. To be noted: SPR.
The mark [3] stands for this setting: KD ratio, GDP-bound HRAS wild-type vs GDP-bound KRAS wild-type.
Setting [4] is: KD ratio, GDP-bound NRAS wild-type vs GDP-bound KRAS wild-type.

Sequence of GDP-bound HRAS wild-type protein (P01112 whole entry): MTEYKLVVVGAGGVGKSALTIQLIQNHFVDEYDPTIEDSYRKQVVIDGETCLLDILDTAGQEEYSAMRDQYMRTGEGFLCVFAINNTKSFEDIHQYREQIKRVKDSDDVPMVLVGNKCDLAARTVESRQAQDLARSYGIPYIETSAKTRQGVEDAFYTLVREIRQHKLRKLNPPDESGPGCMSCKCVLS
Sequence of GDP-bound NRAS wild-type protein (P01111 whole entry): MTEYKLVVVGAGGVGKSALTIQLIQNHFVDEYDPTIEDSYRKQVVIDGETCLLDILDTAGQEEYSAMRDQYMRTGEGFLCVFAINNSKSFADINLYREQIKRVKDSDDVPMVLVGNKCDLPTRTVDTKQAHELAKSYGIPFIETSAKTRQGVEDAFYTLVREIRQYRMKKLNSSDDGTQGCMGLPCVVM

Regarding `CCO[C@@H]1C[C@H]2C(=O)NC3(CCC3)C(=O)N(C)[C@@H]([C@H](C)CC)C(=O)N(C)[C@H](C(=O)N3CCOCC3)CC(=O)N(C)[C@@H](CC(C)C)C(=O)N[C@@H]([C@@H](C)CC)C(=O)N(C)CC(=O)N(C)[C@H]3CCCCCN(C3=O)[C@@H](Cc3ccc(C(F)(F)F)cc3)C(=O)N(C)CC(=O)N[C@@H](CCc3cc(F)c(C(F)(F)F)c(F)c3)C(=O)N2C1` [PP0821], the “HRAS/KRAS (ratio of KD value with respect to HRAS to KD value with respect to KRAS)” value in experiment [1] (setting [3]) is “B (a compound having 3 or more and less than 10 is denoted as B)”. Further, in experiment [2] (setting [4]), the “NRAS/KRAS (ratio of KD value with respect to NRAS to KD value with respect to KRAS)” value was “A (a compound having 10 or more and less than 20 is denoted as A)”.

With `CC[C@H](C)[C@@H]1NC(=O)[C@H](CC(C)C)N(C)C(=O)C[C@@H](C(=O)N2CCOCC2)N(C)C(=O)[C@H](C2CCCC2)N(C)C(=O)C2(CCCC2)NC(=O)[C@@H]2CCCN2C(=O)[C@H](CCc2ccc(C(F)(F)F)c(Cl)c2)NC(=O)CN(C)C(=O)[C@H](Cc2ccc(C(F)(F)F)cc2)N(CC2CC2)C(=O)[C@@H]2CCN2C(=O)[C@H](C)N(C)C1=O` [PP0108] ([NMeL]I[NMeA][Aze][X31][Sar][hPhe(3-Cl-4-CF3)]P[Ac5c][NMeGly(cPent)][NMeD]-Morpholide; lactam N-11), the “HRAS/KRAS (ratio of KD for GDP-bound HRAS wild-type to KD for KRAS)” value in experiment [1] (KD ratio HRAS/KRAS) was “C (A compound having a KD ratio of 0.1 or more and less than 3 is denoted as C)”. The “NRAS/KRAS (ratio of KD for GDP-bound NRAS wild-type to KD for KRAS)” value in experiment [2] (KD ratio NRAS/KRAS) was “C (A compound having a KD ratio of 0.1 or more and less than 3 is denoted as C)”.

With `CCO[C@@H]1C[C@H]2C(=O)NC3(CC(C)(C)C3)C(=O)N(C)[C@@H](C3CCCC3)C(=O)N(C)[C@H](C(=O)N(C)C)CC(=O)N(C)[C@H]3CCCCCc4ccc(cc4)C[C@@H](C(=O)N(C)CC(=O)N[C@@H](CCc4ccc(Cl)c(Cl)c4)C(=O)N2C1)N1CC/C=C\C[C@@H](C1=O)N(C)C(=O)CN(C)C(=O)[C@H]([C@@H](C)CC)NC3=O` [PP3076], the “HRAS/KRAS (ratio of KD value with respect to GDP-bound HRAS wild-type protein to KD value with respect to KRAS)” value in experiment [1] (KD ratio HRAS/KRAS, GDP-bound wild-type proteins) was “A (a compound having 10 or more and less than 20 is denoted as A)”. Also, the “NRAS/KRAS (ratio of KD value with respect to GDP-bound NRAS wild-type protein to KD value with respect to KRAS)” value in experiment [2] (KD ratio NRAS/KRAS, GDP-bound wild-type proteins) was “AA (a compound having 20 or more is denoted as AA)”.

For the compound `CCO[C@@H]1C[C@H]2C(=O)NC3(CC(C)(C)C3)C(=O)N(C)[C@@H](C(CC)CC)C(=O)N(C)[C@H](CC)CC(=O)N(C)[C@@H](CC3CC3)C(=O)N[C@@H]([C@@H](C)CC)C(=O)N(C)CC(=O)N(C)[C@H]3C/C=C\CCN(C3=O)[C@@H](Cc3ccc(C(F)(F)F)cc3)C(=O)N(C)CC(=O)N[C@@H](CCc3cc(F)c(C(F)(F)F)c(F)c3)C(=O)N2C1` [PP1628], the “HRAS/KRAS (ratio of KD value for HRAS to KD value for KRAS)” value in experiment [1] (setting [3]) is “A (a compound having 10 or more and less than 20 is denoted as A)”. Also, the “NRAS/KRAS (ratio of KD value for NRAS to KD value for KRAS)” value in experiment [2] (setting [4]) is “A (a compound having 10 or more and less than 20 is denoted as A)”.

Turning to `CCCN1C(=O)CN(C)C(=O)[C@@H]2CCN2C(=O)[C@H]([C@@H](C)CC)NC(=O)[C@H](CC(C)C)N(C)C(=O)C[C@@H](C(=O)N2CCOCC2)N(C)C(=O)[C@H](C2CCCC2)N(C)C(=O)[C@](C)(C(C)C)NC(=O)[C@@H]2CCCN2C(=O)[C@H](CCc2cc(F)c(C(F)(F)F)c(F)c2)NC(=O)CN(C)C(=O)[C@@H]1Cc1ccc(C(F)(F)F)cc1` [PP0773] ([NMeL]I[Aze][Sar][NPrPhe(4-CF3)][Sar][hPhe(3,5-F2-4-CF3)]P[αMeV][NMeGly(cPent)][NMeD]-Morpholide; lactam N-11), in experiment [1] (KD ratio HRAS/KRAS), the “HRAS/KRAS (ratio of KD value with respect to GDP-bound HRAS wild-type protein to KD value with respect to KRAS)” value is “B (a compound having 3 or more and less than 10 is denoted as B)”. In addition, the “NRAS/KRAS (ratio of KD value with respect to GDP-bound NRAS wild-type protein to KD value with respect to KRAS)” value in experiment [2] (KD ratio NRAS/KRAS) was “B (a compound having 3 or more and less than 10 is denoted as B)”.

As for `CC[C@H](C)[C@@H]1NC(=O)[C@H](CC2CC2)N(C)C(=O)C[C@@H](C(=O)N(C)C)N(C)C(=O)[C@H](C2CCCC2)N(C)C(=O)C2(CCC2)NC(=O)[C@@H]2C[C@@H](C)CN2C(=O)[C@H](CCc2ccc(C(F)(F)F)c(OC)c2)NC(=O)CN(C)C(=O)[C@H](Cc2ccc(C)cc2)N2CC/C=C\C[C@@H](C2=O)N(C)C(=O)CN(C)C1=O` [PP1863], the “HRAS/KRAS (ratio of KD value for HRAS to KD value for KRAS)” value in experiment [1] (setting [3]) was “A (a compound having 10 or more and less than 20 is denoted as A)”. In addition, in experiment [2] (setting [4]), the “NRAS/KRAS (ratio of KD value for NRAS to KD value for KRAS)” value was “A (a compound having 10 or more and less than 20 is denoted as A)”.

With `CCCN1C(=O)[C@@H]2CCN2C(=O)CN(C)C(=O)[C@H]([C@@H](C)CC)NC(=O)[C@H](CC(C)C)N(C)C(=O)C[C@@H](C(=O)N2CCOCC2)N(C)C(=O)[C@H](C2CCCC2)N(C)C(=O)C2(COC2)NC(=O)[C@@H]2CCCN2C(=O)[C@H](CCc2cc(F)c(C(F)(F)F)c(F)c2)NC(=O)CN(C)C(=O)[C@@H]1Cc1ccc(C(F)(F)F)cc1` [PP0801] ([NMeL]I[Sar][Aze][NPrPhe(4-CF3)][Sar][hPhe(3,5-F2-4-CF3)]P[Ac4c(3-oxa)][NMeGly(cPent)][NMeD]-Morpholide; lactam N-11), the “HRAS/KRAS (ratio of KD value with respect to GDP-bound HRAS wild-type protein to KD value with respect to KRAS)” value in experiment [1] (KD ratio HRAS/KRAS) was “B (a compound having 3 or more and less than 10 is denoted as B)”. For the same compound, the “NRAS/KRAS (ratio of KD value with respect to GDP-bound NRAS wild-type protein to KD value with respect to KRAS)” value in experiment [2] (KD ratio NRAS/KRAS) was “C (A compound having a KD ratio of 0.1 or more and less than 3 is denoted as C)”.
